Experimental data taken from patent US20250114331A1, “CONCURRENT TARGETING OF ONCOGENIC PATHWAYS TO ENHANCE CHEMOTHERAPY AND IMMUNOTHERAPY” (THE JOHNS HOPKINS UNIVERSITY, priority 2021, published 2025).
“Also recorded” adds a separate entry of the source. Read-outs that look alike come from different tables or passages of the source.

Tests used:
[1] = tested on: H1299 and H1437 cells; assay: qRT-PCR of YAP1 and STAT3 pathway genes after drug treatment for 72 hours; assay type: cell-based, human
Procedure: qRT-PCR. The mRNA expression level of each gene was determined by qRT-PCR. […] We quantified the β-actin mRNA level to normalize the expression levels of the targeted genes. Each sample was tested in triplicate and run three times. Each graph shown in our figures indicates the average mRNA expression level of targeted genes compared with the β-actin expression level, with standard error of mean. To determine doses of these drugs that are effective for pathway inhibition, H1299 and H1437 cells were treated with verteporfin or S3I-201 for 72 hours.

[2] = tested on: H1299 and H1437 cells; assay: Immunoblotting of YAP1, STAT3 and pSTAT3 after drug treatment; assay type: cell-based, human
Procedure: Western blotting. Cells were dissolved in RIPA buffer (Thermo Fisher Scientific) supplemented with proteinase inhibitor and phosphatase inhibitor cocktails (Roche, Mannheim, Germany). After total protein lysate was electrophoretically transferred onto PVDF membrane, the membrane was blocked with 5% skim milk in 0.05% TBS-Tween buffer and incubated at 4° C. overnight with a primary antibody specific to each protein. The membrane was then probed with an appropriate secondary antibody (Cell Signaling Technology, Danvers, USA). β-actin served as an endogenous control. The primary antibodies and dilution ratios were β-actin (Sigma-Aldrich; #A2228; 1:5000), NANOG (D73G4; Cell Signaling Technology; #4903; 1:1000), OCT4 (D705Z; Cell Signaling Technology; #75463; 1:500), SOX2 (EPR3131; Abcam, Cambridge, UK; #ab92494; 1:500), STAT3 (124H6; Cell Signaling Technology; #9139; 1:2000), pSTAT3 (D3A7; Cell Signaling Technology; #9145; 1:1000) and YAP1 (EP1674Y; Abcam, #ab52771; 1:2000).
To determine doses of these drugs that are effective for pathway inhibition, H1299 and H1437 cells were treated with verteporfin or S3I-201 for 72 hours.

[3] = tested on: MB 49, UPPL595 and BBN975; assay: Cell proliferation, sphere formation and RT-qPCR of CSC markers in VP treated mouse UCB cell lines; assay type: cell-based; settings: 1 μM
Procedure: Cell viability assay. Cell proliferation and viability were evaluated using alamarBlue™ Cell Viability Reagent (ThermoFischer Scientific). For cell proliferation assay, after cells (5×10^3/well) were seeded into 96-well plates with culture media containing 10% FBS, the optical density of each well was measured at desired time interval, following the manufacturers protocol. The absorbance was measured by a Spectra Max 250 Plate Reader (Molecular Devices). Cell viability were calculated as percentage over control. Sphere formation assay. Sphere formation was induced by culturing cells (2×10^4/well) in DMEM/Ham's F12 50/50 Mix (Mediatech) supplemented with B-27 (Life Technologies), 20 ng/mL FGF-basic (Peprotech), 20 ng/mL EGF (Peprotech). Cell culture was performed in ultra-low attachment 6 well plates (Corning, Lowell, USA) for 10 days. The medium was replaced every other day. Sphere formation was evaluated using the inverted phase-contrast microscope. RNA extraction and quantitative reverse transcriptase polymerase chain reaction (Q-RT-PCR). Total RNA from cell lines was isolated using the RNeasy Plus Mini Kit (Qiagen, Germantown, USA), according to the manufacturer's protocol. […] The expression levels were quantified relative to β-actin using the 2−ΔΔCt method.

[4] = tested on: UPPL 595 cells; assay: Wound healing; assay type: cell-based, mouse; settings: VP treated versus control cells
[5] = tested on: MB49, UPPL595 and BBN975; assay: FABP4 expression and lipid droplet quantification after VP, mouse UCB cell lines; assay type: cell-based
Procedure: RNA extraction and quantitative reverse transcriptase polymerase chain reaction (Q-RT-PCR). Total RNA from cell lines was isolated using the RNeasy Plus Mini Kit (Qiagen, Germantown, USA), according to the manufacturer's protocol. This total RNA was converted to cDNA using the SuperScript III First-Strand Synthesis System (Life technologies, Carlsbad, USA), which was then used as a template for qRT-PCR. qRT-PCR was performed using the Fast SYBR Green Master Mix (Thermo Fisher Scientific, Waltham, USA) on a Quant studio 6 Fast Real-Time PCR System (Life technologies) in triplicate. SDS software (Applied Biosystems) was used to determine cycle threshold (Ct) values. The expression levels were quantified relative to β-actin using the 2-ΔΔCt method. YAP1 influences the accumulation of lipid droplets in cancer cells. […] Therefore, apart from investigating the altered regulation of intracellular signaling cascades, the present inventors also studied cellular metabolism in response to YAP1 modulation. […] It was reported that FABP4 is a critical molecule in accumulation of lipid droplets in the intracellular compartments (45). […] As increased amount of L-lactate correlated with more glycolysis and poor prognosis of cancer (46), the present inventors quantified L-lactate in mouse and human UCB cells with YAP1 modulation.

[6] = tested on: T24, BFTC905 and BFTC909; assay: Lipid droplet quantification after VP, human UCB cell lines; assay type: cell-based; settings: VP treated
From the text: YAP1 influences the accumulation of lipid droplets in cancer cells. […] Therefore, apart from investigating the altered regulation of intracellular signaling cascades, the present inventors also studied cellular metabolism in response to YAP1 modulation. […] It was reported that FABP4 is a critical molecule in accumulation of lipid droplets in the intracellular compartments (45). […] It was also observed that when the culture media was supplemented with oleic acid (commonly used as an inducer for lipid droplet formation), there is an increase accumulation of lipid droplets in the YAP1 expressing cells compared to the KD cells (FIG. 29C). […] As increased amount of L-lactate correlated with more glycolysis and poor prognosis of cancer (46), the present inventors quantified L-lactate in mouse and human UCB cells with YAP1 modulation.

[7] = target: YAP1 (Homo sapiens, UniProt P46937); settings: cited from earlier work
Chain of YAP1 (P46937 whole entry, species assumed): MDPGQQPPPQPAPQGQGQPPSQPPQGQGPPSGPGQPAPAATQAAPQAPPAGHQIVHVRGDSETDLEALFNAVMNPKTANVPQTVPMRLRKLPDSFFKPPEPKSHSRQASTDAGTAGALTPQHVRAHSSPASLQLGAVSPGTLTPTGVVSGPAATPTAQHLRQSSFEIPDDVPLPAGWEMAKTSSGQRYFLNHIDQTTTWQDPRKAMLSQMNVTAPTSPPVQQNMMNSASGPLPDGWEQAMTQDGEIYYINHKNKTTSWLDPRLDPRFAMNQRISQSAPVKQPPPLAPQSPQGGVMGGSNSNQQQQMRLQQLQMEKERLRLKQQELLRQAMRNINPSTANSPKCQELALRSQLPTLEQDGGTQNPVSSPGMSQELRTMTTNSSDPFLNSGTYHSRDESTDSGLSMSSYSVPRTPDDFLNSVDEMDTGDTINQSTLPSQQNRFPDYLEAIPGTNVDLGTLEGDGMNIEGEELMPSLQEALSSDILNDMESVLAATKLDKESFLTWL

[8] = tested on: colorectal cancer cells; settings: in mice and in cells cultured under hypoxic and nutrient-deprived conditions; cited from earlier work

C=Cc1c(C)c2cc3nc(cc4[nH]c(cc5nc(cc1[nH]2)C(C)=C5CCC(=O)O)c(CCC(=O)OC)c4C)[C@@]1(C)C3=CC=C(C(=O)OC)[C@H]1C(=O)OC [verteporfin, 3-[(23S,24R)-14-ethenyl-5-(3-methoxy-3-oxopropyl)-22,23-bis(methoxycarbonyl)-4,10,15,24-tetramethyl-25,26,27,28-tetraazahexacyclo[16.6.1.13,6.18,11.113,16.019,24]octacosa-1,3,5,7,9,11(27),12,14,16,18(25),19,21-dodecaen-9-yl]propanoic acid]
mRNA expression of YAP1 and downstream targets CTGF and CYR61 [1]: suppressed mRNA expressions of YAP1 and its downstream targets, such as CTGF and CYR61, in a dose-dependent manner | mRNA expression of YAP1 and downstream targets CTGF and CYR61 ([1]; listed as Verteporfin): suppressed mRNA expression of YAP1, and its downstream targets, CTGF and CYR61, as the drug concentration was increased | STAT3 oligomerization (high molecular weight complexes) [2]: STAT3 oligomerization upon verteporfin treatment in a dose dependent manner; also recorded: high molecular weight complexes (regions surrounded by circles) were increased | YAP1 and total STAT3 protein expression [2]: both YAP1 and total STAT3 expressions were suppressed | YAP1 and total STAT3 protein expression ([2]; listed as Verteporfin): suppressed YAP1 and STAT3 expressions in H1299 and H1437 cells in a concentration dependent manner | cancer stemness (cell proliferation, sphere formation, CSC markers) [3]: inhibit the development of cancer stemness | wound closure [4]: significant difference in wound closure | expression level of FABP4 [5]: significantly downregulated | accumulation of intracellular lipid droplets [6]: decreases the accumulation of intracellular lipid droplets | binding to YAP1 and YAP1-TEAD2 interaction [7]: bind to YAP1 and change its conformation, thereby abrogating its interaction with TEAD2 | killing of colorectal cancer cells by protein oligomer accumulation [8]: selectively killed colorectal cancer cells
